Earlier results, collected in US20140228389A1, “DRY POWDER COMPOUND FORMULATIONS AND USES THEREOF” (Wyeth, LLC, priority 2006, published 2014).

Columns and labels:
[1] = white crystalline powder from Mallinckrodt Pharmaceuticals
opioid receptors = conditions: found in U.S. Ser. No. 11/441,395 and 11/441,452

Row | SMILES | solubility in water [1] | opioid activity (agonist or antagonist) (opioid receptors)
1 | C[N+]1(CC2CC2)CC[C@]23c4c5ccc(O)c4O[C@H]2C(=O)CC[C@@]3(O)[C@H]1C5.[Br-] (stereo partly drawn) [Methylnaltrexone, Methylnaltrexone bromide] | freely soluble in water | 
2 | C[N+]1(CC2CC2)CCC23c4c5ccc(O)c4OC2C(=O)CCC3(O)C1C5 (single isomer, unassigned) [R—N isomer of methylnaltrexone] |  | opioid antagonist
3 | C[N+]1(CC2CC2)CC[C@]23c4c5ccc(O)c4O[C@H]2C(=O)CC[C@@]3(O)[C@H]1C5.[Br-] (stereo partly drawn) [S—N isomer of methylnaltrexone, S-Methylnaltrexone bromide] |  | opioid agonist
